Read-outs that look alike come from different tables or passages of the source.

The test has as its system recombinant NL4-3 virus (Renilla luciferase in nef, Gag P373S; NLRluc) in MT-2 cells. The experiment in a line: whole plant or invertebrate. The class given is cell-based, HIV. To be noted: Renilla, NL43, luciferase activity in cells infected for 4-5 days with NLRluc recombinants, serial dilutions of inhibitor, read-out: EC50. The method, boiled down:
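Virus from 293T transfection, titered in MT-2 by luciferase. MT-2 (RPMI, 10% HI-FBS) infected ± inhibitor serial dilutions, 4-5 d. Readout: Dual Luciferase premix (lysis:reagent:Stop & Glo 2:1:1), immediate luminescence.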

Consider `C=C(C)[C@@H]1CC[C@]2(NCCN3CCN(S(C)(=O)=O)CC3)CC[C@]3(C)[C@H](CC[C@@H]4[C@@]5(C)CC=C(c6ccc(C(=O)O)cc6)C(C)(C)[C@@H]5CC[C@]43C)[C@@H]12` [Example B15, 4-((1R,3aS,5aR,5bR,7aR,11aS,11bR,13aR,13bR)-5a,5b,8,8,11a-pentamethyl-3a-((2-(4-(methylsulfonyl)piperazin-1-yl)ethyl)amino)-1-(prop-1-en-2-yl)-2,3,3a,4,5,5a,5b,6,7,7a,8,11,11a,11b,12,13,13a,13b-octadecahydro-1H-cyclopenta[a]chrysen-9-yl)benzoic acid], for which the EC50 (class symbols (key in Table 1)) is < 100 nM.
With `C=C(C)[C@@H]1CC[C@]2(NCCN3CCN(S(=O)(=O)N(CC)CC)CC3)CC[C@]3(C)[C@H](CC[C@@H]4[C@@]5(C)CC=C(c6ccc(C(=O)O)cc6)C(C)(C)[C@@H]5CC[C@]43C)[C@@H]12` [Example B37, 4-((1R,3aS,5aR,5bR,7aR,11aS,11bR,13aR,13bR)-3a-((2-(4-(N,N-diethylsulfamoyl)piperazin-1-yl)ethyl)amino)-5a,5b,8,8,11a-pentamethyl-1-(prop-1-en-2-yl)-2,3,3a,4,5,5a,5b,6,7,7a,8,11,11a,11b,12,13,13a,13b-octadecahydro-1H-cyclopenta[a]chrysen-9-yl)benzoic acid], for the setting “class symbols (key in Table 1)”, the EC50 is < 100 nM.
Turning to `C=C(C)[C@@H]1CC[C@]2(NCCN3CC4(COC4)C3)CC[C@]3(C)[C@H](CC[C@@H]4[C@@]5(C)CC=C(c6ccc(C(=O)O)cc6)C(C)(C)[C@@H]5CC[C@]43C)[C@@H]12` [Example B17, 4-((1R,3aS,5aR,5bR,7aR,11aS,11bR,13aR,13bR)-3a-((2-(2-oxa-6-azaspiro[3.3]heptan-6-yl)ethyl)amino)-5a,5b,8,8,11a-pentamethyl-1-(prop-1-en-2-yl)-2,3,3a,4,5,5a,5b,6,7,7a,8,11,11a,11b,12,13,13a,13b-octadecahydro-1H-cyclopenta[a]chrysen-9-yl)benzoic acid], under “class symbols (key in Table 1)”, the EC50 was < 100 nM.
As for `C=C(C)[C@@H]1CC[C@]2(NC(=O)N(CCO)CCN3CCS(=O)(=O)CC3)CC[C@]3(C)[C@H](CC[C@@H]4[C@@]5(C)CC=C(c6ccc(C(=O)O)cc6)C(C)(C)[C@@H]5CC[C@]43C)[C@@H]12` [Example 65, 4-((1R,3aS,5aR,5bR,7aR,11aS,11bR,13aR,13bR)-3a-(((2-(1,1-dioxido-4-thiomorpholinyl)ethyl)(2-hydroxyethyl)carbamoyl)amino)-1-isopropenyl-5a,5b,8,8,11a-pentamethyl-2,3,3a,4,5,5a,5b,6,7,7a,8,11,11a,11b,12,13,13a,13b-octadecahydro-1H-cyclopenta[a]chrysen-9-yl)benzoic acid], the EC50 (class symbols (key in Table 1)) is < 100 nM.
With `C=C(C)[C@@H]1CC[C@]2(NC(=O)CN3CCOC3=O)CC[C@]3(C)[C@H](CC[C@@H]4[C@@]5(C)CC=C(c6ccc(C(=O)O)cc6)C(C)(C)[C@@H]5CC[C@]43C)[C@@H]12` [Example 105, 4-((1R,3aS,5aR,5bR,7aR,11aS,11bR,13aR,13bR)-5a,5b,8,8,11a-pentamethyl-3a-(2-(2-oxooxazolidin-3-yl)acetamido)-1-(prop-1-en-2-yl)-2,3,3a,4,5,5a,5b,6,7,7a,8,11,11a,11b,12,13,13a,13b-octadecahydro-1H-cyclopenta[a]chrysen-9-yl)benzoic acid], the 50% effective concentration (EC50) (class symbols (key in Table 1)) was < 100 nM.
Still for that read-out and setting: under `C=C(C)[C@@H]1CC[C@]2(NC(=O)CCN(C)C)CC[C@]3(C)[C@H](CC[C@@H]4[C@@]5(C)CC=C(c6ccc(C(=O)O)cc6)C(C)(C)[C@@H]5CC[C@]43C)[C@@H]12` [Example 73, 4-((1R,3aS,5aR,5bR,7aR,11aS,11bR,13aR,13bR)-3a-(3-(dimethylamino)propanamido)-5a,5b,8,8,11a-pentamethyl-1-(prop-1-en-2-yl)-2,3,3a,4,5,5a,5b,6,7,7a,8,11,11a,11b,12,13,13a,13b-octadecahydro-1H-cyclopenta[a]chrysen-9-yl)benzoic acid] stands < 100 nM; under `CC(C)[C@@H]1CC[C@]2(N(CCN(C)C)CCN(C)C)CC[C@]3(C)[C@H](CC[C@@H]4[C@@]5(C)CC[C@H](c6ccc(C(=O)O)cc6)C(C)(C)[C@@H]5CC[C@]43C)[C@@H]12` [Example B6, 4-((1S,3aS,5aR,5bR,7aS,9S,11aS,11bR,13aR,13bR)-3a-(bis(2-(dimethylamino)ethyl)amino)-1-isopropyl-5a,5b,8,8,11a-pentamethylicosahydro-1H-cyclopenta[a]chrysen-9-yl)benzoic acid], < 100 nM.
As to `C=C(C)[C@@H]1CC[C@]2(NCCN3CCC(S(C)(=O)=O)CC3)CC[C@]3(C)[C@H](CC[C@@H]4[C@@]5(C)CC=C(c6ccc(C(=O)O)cc6)C(C)(C)[C@@H]5CC[C@]43C)[C@@H]12` [Example B14, 4-((1R,3aS,5aR,5bR,7aR,11aS,11bR,13aR,13bR)-5a,5b,8,8,11a-pentamethyl-3a-((2-(4-(methylsulfonyl)piperidin-1-yl)ethyl)amino)-1-(prop-1-en-2-yl)-2,3,3a,4,5,5a,5b,6,7,7a,8,11,11a,11b,12,13,13a,13b-octadecahydro-1H-cyclopenta[a]chrysen-9-yl)benzoic acid], the EC50 (class symbols (key in Table 1)) was < 100 nM.
Consider `C=C(C)[C@@H]1CC[C@]2(NC(=O)NCCNS(C)(=O)=O)CC[C@]3(C)[C@H](CC[C@@H]4[C@@]5(C)CC=C(c6ccc(C(=O)O)cc6)C(C)(C)[C@@H]5CC[C@]43C)[C@@H]12` [Example 47, 4-((1R,3aS,5aR,5bR,7aR,11aS,11bR,13aR,13bR)-5a,5b,8,8,11a-pentamethyl-3a-(3-(2-(methylsulfonamido)ethyl)ureido)-1-(prop-1-en-2-yl)-2,3,3a,4,5,5a,5b,6,7,7a,8,11,11a,11b,12,13,13a,13b-octadecahydro-1H-cyclopenta[a]chrysen-9-yl)benzoic acid], for which, for the setting “class symbols (key in Table 1)”, the EC50 was < 100 nM.
Regarding `C=C(C)[C@@H]1CC[C@]2(NC(=O)C(=O)Nc3nccs3)CC[C@]3(C)[C@H](CC[C@@H]4[C@@]5(C)CC=C(c6ccc(C(=O)O)cc6)C(C)(C)[C@@H]5CC[C@]43C)[C@@H]12` [Example 79, 4-((1R,3aS,5aR,5bR,7aR,11aS,11bR,13aR,13bR)-5a,5b,8,8,11a-pentamethyl-3a-(2-oxo-2-(thiazol-2-ylamino)acetamido)-1-(prop-1-en-2-yl)-2,3,3a,4,5,5a,5b,6,7,7a,8,11,11a,11b,12,13,13a,13b-octadecahydro-1H-cyclopenta[a]chrysen-9-yl)benzoic acid], where the note is “class symbols (key in Table 1)”, the EC50 is < 100 nM.
Take `C=C(C)[C@@H]1CC[C@]2(NCCN3CCN(C(=O)C4CCCC4)CC3)CC[C@]3(C)[C@H](CC[C@@H]4[C@@]5(C)CC=C(c6ccc(C(=O)O)cc6)C(C)(C)[C@@H]5CC[C@]43C)[C@@H]12` [Example B55, 4-((1R,3aS,5aR,5bR,7aR,11aS,11bR,13aR,13bR)-3a-((2-(4-(cyclopentanecarbonyl)piperazin-1-yl)ethyl)amino)-5a,5b,8,8,11a-pentamethyl-1-(prop-1-en-2-yl)-2,3,3a,4,5,5a,5b,6,7,7a,8,11,11a,11b,12,13,13a,13b-octadecahydro-1H-cyclopenta[a]chrysen-9-yl)benzoic acid]: the half-maximal effective concentration (EC50) (class symbols (key in Table 1)) was < 100 nM.
Consider `C=C(C)[C@@H]1CC[C@]2(NCCCN3CCS(=O)(=O)CC3)CC[C@]3(C)[C@H](CC[C@@H]4[C@@]5(C)CC=C(c6ccc(C(=O)O)c(F)c6)C(C)(C)[C@@H]5CC[C@]43C)[C@@H]12` [Example A6, benzoic acid, 4-[(1R,3aS,5aR,5bR,7aR,11aS,11bR,13aR,13bR)-3a-[[3-(1,1-dioxido-4-thiomorpholinyl)propyl]amino]-2,3,3a,4,5,5a,5b,6,7,7a,8,11,11a,11b,12,13,13a,13b-octadecahydro-5a,5b,8,8,11a-pentamethyl-1-(1-methylethenyl)-1H-cyclopenta[a]chrysen-9-yl]-2-fluoro-], for which, under “class symbols (key in Table 1)”, the EC50 was < 100 nM.
In the case of `C=C(C)[C@@H]1CC[C@]2(NCCN3CCN(C)CC3)CC[C@]3(C)[C@H](CC[C@@H]4[C@@]5(C)CC=C(c6ccc(C(=O)O)cc6)C(C)(C)[C@@H]5CC[C@]43C)[C@@H]12` [Example B28, 4-((1R,3aS,5aR,5bR,7aR,11aS,11bR,13aR,13bR)-5a,5b,8,8,11a-pentamethyl-3a-((2-(4-methylpiperazin-1-yl)ethyl)amino)-1-(prop-1-en-2-yl)-2,3,3a,4,5,5a,5b,6,7,7a,8,11,11a,11b,12,13,13a,13b-octadecahydro-1H-cyclopenta[a]chrysen-9-yl)benzoic acid], for the setting “class symbols (key in Table 1)”, the EC50 was < 100 nM.
For the compound `C=C(C)[C@@H]1CC[C@]2(NC(=O)N(CCN)CCC(=O)O)CC[C@]3(C)[C@H](CC[C@@H]4[C@@]5(C)CC=C(c6ccc(C(=O)O)cc6)C(C)(C)[C@@H]5CC[C@]43C)[C@@H]12` [Example 43, 4-((1R,3aS,5aR,5bR,7aR,11aS,11bR,13aR,13bR)-3a-(3-(2-aminoethyl)-3-(2-carboxyethyl)ureido)-5a,5b,8,8,11a-pentamethyl-1-(prop-1-en-2-yl)-2,3,3a,4,5,5a,5b,6,7,7a,8,11,11a,11b,12,13,13a,13b-octadecahydro-1H-cyclopenta[a]chrysen-9-yl)benzoic acid], the half-maximal effective concentration (EC50) (numeric values) came to 30 nM.
As to `C=C(C)[C@@H]1CC[C@]2(NC(=O)N(C)CCn3ccnc3)CC[C@]3(C)[C@H](CC[C@@H]4[C@@]5(C)CC=C(c6ccc(C(=O)O)cc6)C(C)(C)[C@@H]5CC[C@]43C)[C@@H]12` [Example 25, 4-((1R,3aS,5aR,5bR,7aR,11aS,11bR,13aR,13bR)-3a-(3-(2-(1H-imidazol-1-yl)ethyl)-3-methylureido)-5a,5b,8,8,11a-pentamethyl-1-(prop-1-en-2-yl)-2,3,3a,4,5,5a,5b,6,7,7a,8,11,11a,11b,12,13,13a,13b-octadecahydro-1H-cyclopenta[a]chrysen-9-yl)benzoic acid], where the note is “class symbols (key in Table 1)”, the concentration giving a half-maximal response (EC50) is < 100 nM.

The record behind these values is patent publication US20140343000A1 (priority 2011, published 2014).
